Assay results: patent publication US9695155B2, “Herbicidal substituted pyrimidinyloxy benzene compounds” (E. I. DU PONT DE NEMOURS AND COMPANY, priority 2013, dated 2017)

Tests used:
Assay in all cases: Test F preemergence
Conditions in all cases: 21 days, scale 0 to 100
johnsongrass = type: in vivo, Sorghum halepense
From the text: (§1) Seeds of plant species selected from bermudagrass (Cynodon dactylon), surinam grass (Brachiaria decumbens), large (Lg) crabgrass (Digitaria sanguinalis), crabgrass, naked (naked crabgrass, Digitaria nuda), foxtail, green (green foxtail, Setaria viridis), johnsongrass (Sorghum halepense), kochia (Kochia scoparia), morningglory (pitted morningglory, Ipomoea lacunosa), nutsedge, purple (purple nutsedge, Cyperus rotundus), ragweed (common ragweed, Ambrosia elatior), mustard, black (black mustard, Brassica nigra), guineagrass (Panicum maximum), dallisgrass (Paspalum dilatatum), barnyardgrass (Echinochloa crus-galli), sandbur (southern sandbur, Cenchrus echinatus), sowthistle (common sowthistle, Sonchus oleraceous), Italian ryegrass (Lolium multiflorum), signalgrass (broadleaf signalgrass, Brachiaria platyphylla), dayflower (Virginia (VA) dayflower, Commelina virginica), bluegrass (annual bluegrass, Poa annua), quackgrass (Elytrigia repens), mallow (common mallow, Malva sylvestris), buckwheat, wild (wild buckwheat, Polygonum convolvulus), leafy spurge (Euphorbia esula), chickweed (common chickweed, Stellaria media), wild poinsettia (Euphorbia heterophylla), and pigweed (Amaranthus retroflexus) were planted into a blend of loam soil and sand and treated preemergence with test chemicals formulated in a non-phytotoxic solvent mixture which included a surfactant.
(§2) Treated plants and controls were maintained in a greenhouse for 21 days, after which time all species were compared to controls and visually evaluated. Plant response ratings, summarized in Table F, are based on a scale of 0 to 100 where 0 is no effect and 100 is complete control. A dash (-) response means no test result.

nutsedge, purple = type: in vivo, Cyperus rotundus
From the text: as §1, §2

mustard, black = type: in vivo, Brassica nigra
From the text: as §1, §2

dayflower = type: in vivo, Commelina virginica
From the text: as §1, §2

buckwheat, wild = type: in vivo, Polygonum convolvulus
From the text: as §1, §2

chickweed = type: in vivo, Stellaria media
From the text: as §1, §2

In the case of `N#Cc1cccc(Oc2ncc(F)cn2)c1-n1cc(C(F)(F)F)cn1` [Compound 79, 3-[(5-fluoro-2-pyrimidinyl)oxy]-2-[4-(trifluoromethyl)-1H-pyrazol-1-yl]benzonitrile], the “Plant response rating, Johnsongrass” value (johnsongrass; 16 g ai/ha) is reported as 65, the “Plant response rating, Johnsongrass” value (johnsongrass; 31 g ai/ha) is reported as 100 and the “Plant response rating, Johnsongrass” value (johnsongrass; 62 g ai/ha) is reported as 100. For the same molecule, the “Plant response rating, Johnsongrass” value (johnsongrass; 125 g ai/ha) was 100, the “Plant response rating, Johnsongrass” value (johnsongrass; 250 g ai/ha) was 100 and the “Plant response rating, Nutsedge, Purple” value (nutsedge, purple; 16 g ai/ha) was 0. For the same molecule, the “Plant response rating, Nutsedge, Purple” value (nutsedge, purple; 31 g ai/ha) was 10, the “Plant response rating, Nutsedge, Purple” value (nutsedge, purple; 62 g ai/ha) was 70 and the “Plant response rating, Nutsedge, Purple” value (nutsedge, purple; 125 g ai/ha) was 70. The “Plant response rating, Nutsedge, Purple” value (nutsedge, purple; 250 g ai/ha) was 85, the “Plant response rating, Mustard, Black” value (mustard, black; 16 g ai/ha) was 100 and the “Plant response rating, Mustard, Black” value (mustard, black; 31 g ai/ha) was 100. For the same molecule, the “Plant response rating, Mustard, Black” value (mustard, black; 62 g ai/ha) was 100, the “Plant response rating, Mustard, Black” value (mustard, black; 125 g ai/ha) was 100 and the “Plant response rating, Mustard, Black” value (mustard, black; 250 g ai/ha) was 100. For the same molecule, the “Plant response rating, Dayflower, VA” value (dayflower; 16 g ai/ha) was 95, the “Plant response rating, Dayflower, VA” value (dayflower; 31 g ai/ha) was 98 and the “Plant response rating, Dayflower, VA” value (dayflower; 62 g ai/ha) was 100. The “Plant response rating, Dayflower, VA” value (dayflower; 125 g ai/ha) was 100, the “Plant response rating, Dayflower, VA” value (dayflower; 250 g ai/ha) was 100 and the “Plant response rating, Buckwheat, Wild” value (buckwheat, wild; 16 g ai/ha) was 98. For the same molecule, the “Plant response rating, Buckwheat, Wild” value (buckwheat, wild; 31 g ai/ha) was 100, the “Plant response rating, Buckwheat, Wild” value (buckwheat, wild; 62 g ai/ha) was 100 and the “Plant response rating, Buckwheat, Wild” value (buckwheat, wild; 125 g ai/ha) was 100. For the same molecule, the “Plant response rating, Buckwheat, Wild” value (buckwheat, wild; 250 g ai/ha) was 100, the “Plant response rating, Chickweed” value (chickweed; 16 g ai/ha) was 98 and the “Plant response rating, Chickweed” value (chickweed; 31 g ai/ha) was 100. For the same molecule, the “Plant response rating, Chickweed” value (chickweed; 62 g ai/ha) was 100, the “Plant response rating, Chickweed” value (chickweed; 125 g ai/ha) was 100 and the “Plant response rating, Chickweed” value (chickweed; 250 g ai/ha) was 100.

For `N#Cc1cccc(Oc2ncc(Cl)cn2)c1-n1cc(OC(F)F)cn1` [Compound 97], the “Plant response rating, Johnsongrass” value (johnsongrass; 16 g ai/ha) was 0, the “Plant response rating, Johnsongrass” value (johnsongrass; 31 g ai/ha) was 65 and the “Plant response rating, Johnsongrass” value (johnsongrass; 62 g ai/ha) was 95. For the same molecule, the “Plant response rating, Johnsongrass” value (johnsongrass; 125 g ai/ha) was 100, the “Plant response rating, Johnsongrass” value (johnsongrass; 250 g ai/ha) was 100 and the “Plant response rating, Nutsedge, Purple” value (nutsedge, purple; 16 g ai/ha) was 15. For the same molecule, the “Plant response rating, Nutsedge, Purple” value (nutsedge, purple; 31 g ai/ha) was 35, the “Plant response rating, Nutsedge, Purple” value (nutsedge, purple; 62 g ai/ha) was 30 and the “Plant response rating, Nutsedge, Purple” value (nutsedge, purple; 125 g ai/ha) was 75. For the same molecule, the “Plant response rating, Nutsedge, Purple” value (nutsedge, purple; 250 g ai/ha) was 90, the “Plant response rating, Mustard, Black” value (mustard, black; 16 g ai/ha) was 90 and the “Plant response rating, Mustard, Black” value (mustard, black; 31 g ai/ha) was 100. The “Plant response rating, Mustard, Black” value (mustard, black; 62 g ai/ha) was 100, the “Plant response rating, Mustard, Black” value (mustard, black; 125 g ai/ha) was 100 and the “Plant response rating, Mustard, Black” value (mustard, black; 250 g ai/ha) was 100. The “Plant response rating, Dayflower, VA” value (dayflower; 16 g ai/ha) was 35, the “Plant response rating, Dayflower, VA” value (dayflower; 31 g ai/ha) was 80 and the “Plant response rating, Dayflower, VA” value (dayflower; 62 g ai/ha) was 98. For the same molecule, the “Plant response rating, Dayflower, VA” value (dayflower; 125 g ai/ha) was 98, the “Plant response rating, Dayflower, VA” value (dayflower; 250 g ai/ha) was 100 and the “Plant response rating, Buckwheat, Wild” value (buckwheat, wild; 16 g ai/ha) was 85. For the same molecule, the “Plant response rating, Buckwheat, Wild” value (buckwheat, wild; 31 g ai/ha) was 100, the “Plant response rating, Buckwheat, Wild” value (buckwheat, wild; 62 g ai/ha) was 100 and the “Plant response rating, Buckwheat, Wild” value (buckwheat, wild; 125 g ai/ha) was 100. For the same molecule, the “Plant response rating, Buckwheat, Wild” value (buckwheat, wild; 250 g ai/ha) was 100, the “Plant response rating, Chickweed” value (chickweed; 16 g ai/ha) was 100 and the “Plant response rating, Chickweed” value (chickweed; 31 g ai/ha) was 100. For the same molecule, the “Plant response rating, Chickweed” value (chickweed; 62 g ai/ha) was 100, the “Plant response rating, Chickweed” value (chickweed; 125 g ai/ha) was 100 and the “Plant response rating, Chickweed” value (chickweed; 250 g ai/ha) was 100.
